Assay results taken from US11178870B2 (priority 2017, dated 2021).

Columns and labels:
[1] = system: Colletotrichum orbiculare; experiment: whole plant or invertebrate; settings: in Cucumis sativus, read-out: control value, Test H (anthracnose on cucumber)
Method: Seeds of a test plant (cucumber variety: Sagami Hanjiro) were planted and cultivated until the first leaf appeared. In the test, the compounds of the present invention were dissolved into a dimethyl sulfoxide-methanol mixture solution (volume ratio: 9/1), and the resultant solutions were diluted with well water to a concentration of 250 ppm. The thus-obtained dilutions were sprayed to the test plant (2.5 ml/pot). After the dilutions dried, a conidial suspension (2-4×10^5 conidia/ml) of Colletotrichum orbiculare was inoculated to the plant by spraying. After the inoculation, the plant was kept in a mist chamber at room temperature of 20 to 23° C. for about 24 hours to promote the onset of disease. The disease development was investigated 6 to 10 days after the inoculation, and the effectiveness of the dilutions was evaluated.
Disease development in Test Example described above was evaluated in increments of 0.05 by setting 0 as no incidence of disease and 3 as disease development in a plant of untreated group. In addition, control values were calculated using the following equation based on disease development.
Control value=100 {1−(n/3)}
n=Disease development of each treated groups

[2] = system: Blumeria graminis f. sp. hordei; experiment: Test Example D: Powdery mildew on barley; type: in vivo; settings: Table 7, Test D, read-out: control value, Test D (powdery mildew on barley)
Puccinia recondita = experiment: Test Example E: Brown rust on wheat; type: in vivo; settings: Table 7, Test E, read-out: control value, Test E (brown rust on wheat)
Alternaia brassicicola = experiment: Test Example C: Alternaria sooty spot on cabbage; type: in vivo; settings: Brassica oleracea; Table 7, Test C; read-out: control value, Test C (Alternaria sooty spot on cabbage)
Plasmopara viticola = experiment: Test Example G: Downy mildew on vine; type: in vivo; settings: 250 ppm sprayed (2.5 ml/pot) before inoculation, assessed 7 to 10 days after inoculation, read-out: control value, Test G (downy mildew on vine)
Botrytis cinerea = experiment: Test Example B: Gray mold on tomato; type: in vivo; settings: Table 7, Test B, read-out: control value, Test B (gray mold on tomato)
Magnaporthe grisea = experiment: whole plant or invertebrate; type: in vivo; settings: Pyricularia oryzae, in Oryza sativa, read-out: control value, Test A (blast on rice)
Phytophthora infestans = experiment: whole plant or invertebrate; type: in vivo; settings: in Solanum lycopersicum, read-out: control value, Test F (late blight on tomato)

C#Cc1cc(-n2cc(Cl)cn2)c(-c2c(F)cc(F)cc2F)n(CC)c1=O [compound 223, 5-(4-chloro-1H-pyrazol-1-yl)-1-ethyl-3-ethynyl-6-(2,4,6-trifluorophenyl)pyridin-2(1H)-one]
> 50%: pest or weed control at 250 µg/mL (Alternaia brassicicola) | pest or weed control at 250 ppm (Plasmopara viticola) | pest or weed control at 250 µg/mL (Magnaporthe grisea)
< 50%: pest or weed control at 250 ppm [1] | pest or weed control at 250 µg/mL [2] | pest or weed control at 250 µg/mL (Puccinia recondita) | pest or weed control at 250 µg/mL (Botrytis cinerea) | pest or weed control at 250 µg/mL (Phytophthora infestans)

CCn1c(-c2c(F)cc(F)cc2F)c(-n2cc(Cl)cn2)cc(OC)c1=O [compound 225, 5-(4-chloro-1H-pyrazol-1-yl)-1-ethyl-3-methoxy-6-(2,4,6-trifluorophenyl)pyridin-2(1H)-one]
> 50%: pest or weed control at 250 µg/mL [2] | pest or weed control at 250 µg/mL (Puccinia recondita) | pest or weed control at 250 µg/mL (Alternaia brassicicola) | pest or weed control at 250 ppm (Plasmopara viticola)
< 50%: pest or weed control at 250 ppm [1] | pest or weed control at 250 µg/mL (Botrytis cinerea) | pest or weed control at 250 µg/mL (Magnaporthe grisea) | pest or weed control at 250 µg/mL (Phytophthora infestans)

CCn1c(-c2ccc(F)cc2F)c(-n2cc(C)cn2)cc(Br)c1=O [compound 226, 3-bromo-6-(2,4-difluorophenyl)-1-ethyl-5-(4-methyl-1H-pyrazol-1-yl)pyridin-2(1H)-one]
< 50%: pest or weed control at 250 µg/mL (Phytophthora infestans)
> 50%: pest or weed control at 250 ppm [1] | pest or weed control at 250 µg/mL [2] | pest or weed control at 250 µg/mL (Puccinia recondita) | pest or weed control at 250 µg/mL (Alternaia brassicicola) | pest or weed control at 250 ppm (Plasmopara viticola) | pest or weed control at 250 µg/mL (Botrytis cinerea) | pest or weed control at 250 µg/mL (Magnaporthe grisea)

CCn1c(-c2ccc(F)cc2F)c(-n2ncc(C)c2Cl)cc(Br)c1=O [compound 228, 3-bromo-5-(5-chloro-4-methyl-1H-pyrazol-1-yl)-6-(2,4-difluoro-phenyl)-1-ethylpyridin-2(1H)-one]
< 50%: pest or weed control at 250 ppm (Plasmopara viticola) | pest or weed control at 250 µg/mL (Phytophthora infestans)
> 50%: pest or weed control at 250 ppm [1] | pest or weed control at 250 µg/mL [2] | pest or weed control at 250 µg/mL (Puccinia recondita) | pest or weed control at 250 µg/mL (Alternaia brassicicola) | pest or weed control at 250 µg/mL (Botrytis cinerea) | pest or weed control at 250 µg/mL (Magnaporthe grisea)

CCn1c(-c2c(F)cc(F)cc2F)c(-n2cc(Cl)cn2)cc(C=O)c1=O [compound 265, 5-(4-chloro-1H-pyrazol-1-yl)-1-ethyl-2-oxo-6-(2,4,6-trifluorophenyl)-1,2-dihydropyridin-3-carboaldehyde]
< 50%: pest or weed control at 250 ppm [1] | pest or weed control at 250 ppm (Plasmopara viticola) | pest or weed control at 250 µg/mL (Botrytis cinerea) | pest or weed control at 250 µg/mL (Magnaporthe grisea) | pest or weed control at 250 µg/mL (Phytophthora infestans)
> 50%: pest or weed control at 250 µg/mL [2] | pest or weed control at 250 µg/mL (Puccinia recondita) | pest or weed control at 250 µg/mL (Alternaia brassicicola)

CCn1c(-c2c(F)cc(F)cc2F)c(-n2cc(Cl)cn2)cc(C(F)F)c1=O [compound 266, 5-(4-chloro-H-pyrazol-1-yl)-3-(difluoromethyl)-1-ethyl-6-(2,4,6-trifluorophenyl)pyridin-2(1H)-one]
< 50%: pest or weed control at 250 µg/mL (Phytophthora infestans)
> 50%: pest or weed control at 250 ppm [1] | pest or weed control at 250 µg/mL [2] | pest or weed control at 250 µg/mL (Puccinia recondita) | pest or weed control at 250 µg/mL (Alternaia brassicicola) | pest or weed control at 250 ppm (Plasmopara viticola) | pest or weed control at 250 µg/mL (Botrytis cinerea) | pest or weed control at 250 µg/mL (Magnaporthe grisea)
